Experimental data published in the NIST ThermoML archive (doi:10.1016/j.jct.2014.02.021).
Values joined by “and” are separate entries in the source; they are usually repeats but may differ in a detail not shown here. Equal values may be shown once.

What was measured:
[1] = xn = mol fraction of the nth substance listed; conditions: 298.15 K, 101 kPa, Liquid, Vibrating tube method
[2] = 298.15 K; 101 kPa; Liquid; Vibrating tube method

CO [methanol] + CC#N
Conditions	mass density [kg/m3]
[1], x2 = 0	786.58

CN(C)C=O [dimethylformamide]
Conditions	mass density [kg/m3]
[2]	943.974

CC1COC(=O)O1 (configuration not stated) [4-methyl-1,3-dioxolan-2-one]
Conditions	mass density [kg/m3]
[2]	1199.49

CC#N [acetonitrile]
Conditions	mass density [kg/m3]
[2]	776.615

CO [methanol]
Conditions	mass density [kg/m3]
[2]	786.58

CN(C)C=O [dimethylformamide] + CO
[1]
Conditions	mass density
x1 = 0.0496	803.451 kg/m3
x1 = 0.0502	803.39 kg/m3
x1 = 0.0511	803.056 kg/m3
x1 = 0.0991	818.484 kg/m3
x1 = 0.1021	818.46 kg/m3
x1 = 0.1084	818.189 kg/m3
x1 = 0.1981	843.566 kg/m3
x1 = 0.1988	843.761 kg/m3
x1 = 0.2004	843 kg/m3
x1 = 0.4022	882.138 kg/m3 and 881.976 kg/m3
x1 = 0.4054	881.38 kg/m3
x1 = 0.4986	896.174 kg/m3
x1 = 0.5002	894.978 kg/m3
x1 = 0.5013	896.278 kg/m3
x1 = 0.5982	909.277 kg/m3
x1 = 0.6008	908.588 kg/m3
x1 = 0.6031	909.254 kg/m3
x1 = 0.7998	928.355 kg/m3
x1 = 0.8028	928.308 kg/m3
x1 = 0.8054	928.317 kg/m3
x1 = 0.8997	936.786 kg/m3
x1 = 0.9033	936.655 kg/m3
x1 = 0.9039	936.718 kg/m3
x1 = 1	943.974 kg/m3

CO [methanol] + CN(C)C=O
Conditions	mass density [kg/m3]
[1], x2 = 0	786.58

CC1COC(=O)O1 (configuration not stated) [4-methyl-1,3-dioxolan-2-one] + CO
[1]
Conditions	mass density [kg/m3]
x1 = 0.0484	828.25
x1 = 0.0497	828.25
x1 = 0.051	829.62
x1 = 0.0987	871.34
x1 = 0.0991	870.05
x1 = 0.0999	869.111
x1 = 0.1972	932.83
x1 = 0.1991	936.46
x1 = 0.2001	939.29
x1 = 0.3942	1035.57
x1 = 0.3998	1021.45
x1 = 0.4001	1037.34
x1 = 0.4998	1069.62
x1 = 0.5022	1072.85
x1 = 0.505	1072.84
x1 = 0.598	1103.43
x1 = 0.6017	1106.39
x1 = 0.6049	1103.9
x1 = 0.7939	1159.25
x1 = 0.7979	1159.25
x1 = 0.8009	1158.72
x1 = 0.9	1179.23
x1 = 0.9011	1179.68
x1 = 0.9031	1179.23
x1 = 1	1199.49

CO [methanol] + CC1COC(=O)O1
Conditions	mass density [kg/m3]
[1], x2 = 0	786.58

CC#N [acetonitrile] + CO
[1]
Conditions	mass density
x1 = 0.0992	787.14 kg/m3
x1 = 0.1002	787.104 kg/m3
x1 = 0.1075	787.149 kg/m3
x1 = 0.197	786.692 kg/m3
x1 = 0.1984	786.63 kg/m3
x1 = 0.2008	786.647 kg/m3
x1 = 0.4002	784.701 kg/m3
x1 = 0.4004	784.66 kg/m3
x1 = 0.4013	784.644 kg/m3
x1 = 0.465	784.22 kg/m3
x1 = 0.4653	784.25 kg/m3
x1 = 0.5041	783.427 kg/m3
x1 = 0.5042	783.347 kg/m3
x1 = 0.5047	783.356 kg/m3
x1 = 0.601	782.103 kg/m3 and 782.009 kg/m3
x1 = 0.6056	781.935 kg/m3
x1 = 0.7992	779.248 kg/m3
x1 = 0.8012	779.292 kg/m3
x1 = 0.8067	779.242 kg/m3
x1 = 0.9007	777.825 kg/m3
x1 = 0.9044	777.935 kg/m3
x1 = 0.9049	777.896 kg/m3
x1 = 0.9358	777.391 kg/m3
x1 = 0.9376	777.347 kg/m3
x1 = 0.9382	777.385 kg/m3
x1 = 1	776.615 kg/m3
